Results reported in patent publication US20240158404A1, “MODULATORS OF ALPHA-1 ANTITRYPSIN” (Vertex Pharmaceuticals Incorporated, priority 2022, published 2024).

Key:
AAT = target: T1, AAT (Homo sapiens, UniProt P01009, E366K); experiment: Compound Quality score (potency in AAT functional assay multiplied by unbound clearance); conditions: compound potency (EC50) x unbound clearance; class symbols
T1 construct: expressed in transfected cells; host or cells: NL20 human bronchial epithelial cells (NL20-SI cell line), with doxycycline added alongside the compounds
Description: As used herein, the term “Compound Quality” refers to the potency of a compound multiplied (x) by the compound's unbound clearance as measured using the assays described in Example 6.
The terms “unbound clearance” refer to unbound intrinsic clearance (unbound CLint) in hepatocytes—the intrinsic clearance a drug would have in the absence of protein binding. Unbound CLint=CLint,hep/fu,hep, where CLint,hep is intrinsic clearance in hepatocytes and fu,hep is unbound fraction in hepatocytes.
A key consideration for the selection of compounds suitable for clinical development is the projection of human dose as described in Equations 1-3. Two key parameters that comprise the dose equation are the unbound clearance of a compound and the plasma efficacious exposure (also referred to herein as compound potency). Together these parameters are known to one skilled in the art as a measurement of Compound Quality and suitability for advancement into clinical development. Thus, when evaluating AAT modulator compounds, one needs to consider both the potency and unbound clearance parameters (i.e., Compound Quality). The relationship between these two parameters can be challenging to predict.
The values provided in the table below are calculated by multiplying the EC50 of each of the compounds by the result from the clearance assay procedures described in Section C above and rounded to two significant figures. In the table below, the following meanings apply for Compound Quality (i.e., compound potency x unbound clearance) values: “++++” means ≤0.2; “+++” means >0.20 and ≤0.30; “++” means >0.30 and ≤0.40; “+” means >0.40 and ≤0.50.

[1] = Exposure multiple in rat 5-day toxicology studies; type: in vivo; parameters: key to Exposure Multiple: ratio of tox-species AUC to target efficacious AUCss; conditions: for EM Score: based on the maximum exposure multiple achieved in the rat 5-day toxicology study; for Exposure Multiple: rat 5-day toxicology study, vs predicted human efficacious exposure
Description: “Exposure multiple” as used herein, refers to an assessment of relative compound exposure in toxicology studies. The calculation of an exposure multiple is accomplished by comparing the exposure (AUC) achieved in a toxicology species relative to the target efficacious exposure at steady state (AUCss). The larger exposure multiple provides the opportunity to explore higher doses relative to efficacious concentration in clinical development. However, the exposure that results in an adverse toxicological outcome is unpredictable.
The calculation of an exposure multiple is accomplished by comparing the plasma exposure (AUC) achieved in a toxicology species relative to the target efficacious exposure at steady state (AUCss). […] In addition, this exposure multiple can allow for further exploration of the desired pharmacology due to the opportunity for a larger window established in toxicology studies. However, the exposure that results in a toxicological outcome in preclinical toxicology studies is unpredictable.
Human exposure multiple (EM) values shown relate to the fold increase in exposure achieved in rat 5-day toxicology studies for a given dose relative to the predicted efficacious exposure anticipated in human (based on cellular NL20 EC50 in vitro efficacy). The exposure multiple score is based on the maximum exposure multiple achieved in the given study. This allows relative comparison across compounds when also considering the administered dose. […] In the tables below, the following meanings apply for exposure multiple scores: “−” means <1; “+” means 1-10; “++” means 10-20; “+++” means 20-30; “++++” means 30-50; and “+++++” means >50.

T1 sequence (P01009 25-418 E366K): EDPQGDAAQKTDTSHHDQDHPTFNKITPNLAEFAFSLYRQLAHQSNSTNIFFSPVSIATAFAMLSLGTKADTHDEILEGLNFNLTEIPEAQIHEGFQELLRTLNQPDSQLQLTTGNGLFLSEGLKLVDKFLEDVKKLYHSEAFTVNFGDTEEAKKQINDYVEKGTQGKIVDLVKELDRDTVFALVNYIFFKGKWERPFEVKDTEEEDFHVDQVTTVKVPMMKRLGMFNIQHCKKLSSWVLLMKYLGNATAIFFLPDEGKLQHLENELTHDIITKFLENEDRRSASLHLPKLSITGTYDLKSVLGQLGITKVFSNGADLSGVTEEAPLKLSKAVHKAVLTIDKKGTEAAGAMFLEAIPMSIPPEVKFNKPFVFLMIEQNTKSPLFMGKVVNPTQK

CC[C@@](O)(COC)c1c(-c2ccc(C(=O)O)cc2)c2c(F)c3[nH]ncc3cc2n1-c1ccc(F)cc1 [Compound 1, (S)-4-(8-Fluoro-5-(4-fluorophenyl)-6-(2-hydroxy-1-methoxybutan-2-yl)-1,5-dihydropyrrolo[2,3-f]indazol-7-yl)benzoic acid]
Compound Quality (AAT): ++++ (“++++” means ≤0.2) | EM Score [1]: +++++ (“+++++” means >50) | Exposure Multiple ([1]; Bid dose 50 (daily 100)): 10 | Exposure Multiple ([1]; Bid dose 200 (daily 400)): 82 | Exposure Multiple ([1]; Bid dose 500 (daily 1000)): 126

CC[C@@](O)(COC)c1c(-c2ccc(C(=O)O)cc2)c2c(F)c3[nH]ncc3cc2n1-c1ccc(F)c(C)c1 [Compound 2, (S)-4-(8-fluoro-5-(4-fluoro-3-methylphenyl)-6-(2-hydroxy-1-methoxybutan-2-yl)-1,5-dihydropyrrolo[2,3-f]indazol-7-yl)benzoic acid]
Compound Quality (AAT): +++ (“+++” means >0.20 and ≤0.30) | EM Score [1]: ++++ (“++++” means 30-50) | Exposure Multiple ([1]; Bid dose 50 (daily 100)): 2 | Exposure Multiple ([1]; Bid dose 200 (daily 400)): 10 | Exposure Multiple ([1]; Bid dose 500 (daily 1000)): 40

CC[C@@](O)(COC)c1c(-c2ccc(C(=O)O)cc2)c2c(F)c3[nH]ncc3cc2n1-c1ccc(F)c(OC)c1 [Compound 3, (S)-4-(8-fluoro-5-(4-fluoro-3-methoxyphenyl)-6-(2-hydroxy-1-methoxybutan-2-yl)-1,5-dihydropyrrolo[2,3-f]indazol-7-yl)benzoic acid]
Compound Quality (AAT): +++ (“+++” means >0.20 and ≤0.30) | EM Score [1]: +++++ (“+++++” means >50) | Exposure Multiple ([1]; Bid dose 50 (daily 100)): 2 | Exposure Multiple ([1]; Bid dose 200 (daily 400)): 17 | Exposure Multiple ([1]; Bid dose 500 (daily 1000)): 60

CCc1cc(-c2c(C(O)(CC)COC)n(-c3ccc(F)c(F)c3)c3cc4cn[nH]c4c(F)c23)ccc1C(=O)O (stereo not shown) [Compound 48]
Compound Quality (AAT): + (“+” means >0.40 and ≤0.50)

CCc1cc(-c2c(C(O)(CC)COC)n(-c3ccc(F)c(OC)c3)c3cc4cn[nH]c4c(F)c23)ccc1C(=O)O (stereo not shown) [Compound 49]
Compound Quality (AAT): ++ (“++” means >0.30 and ≤0.40)

[2H]C([2H])([2H])Oc1cc(-n2c(C(O)(CC)COC)c(-c3ccc(C(=O)O)c(C)c3)c3c(F)c4[nH]ncc4cc32)ccc1F (stereo not shown) [Compound 50]
Compound Quality (AAT): ++ (“++” means >0.30 and ≤0.40)

[2H]C([2H])([2H])Oc1cc(-n2c(C3(O)CCCC[C@@H]3OC)c(-c3ccc(C(=O)O)cc3)c3c(F)c4[nH]ncc4cc32)ccc1F (stereo partly shown) [Compound 51]
Compound Quality (AAT): ++ (“++” means >0.30 and ≤0.40)

[2H]C([2H])([2H])OCC(O)(CC)c1c(-c2ccc(C(=O)O)cc2)c2c(F)c3[nH]ncc3cc2n1-c1ccc(F)cc1 (stereo not shown) [Compound 52]
Compound Quality (AAT): ++ (“++” means >0.30 and ≤0.40)

[2H]C([2H])([2H])OCC(O)(CC)c1c(-c2ccc(C(=O)O)cc2)c2c(F)c3[nH]ncc3cc2n1-c1ccc(F)c(OC)c1 (stereo not shown) [Compound 53]
Compound Quality (AAT): ++ (“++” means >0.30 and ≤0.40)

[2H]C([2H])([2H])Oc1cc(-n2c(C3(O)CCCC[C@@H]3OC)c(-c3ccc(C(=O)O)c(C)c3)c3c(F)c4[nH]ncc4cc32)ccc1F (stereo partly shown) [Compound 54]
Compound Quality (AAT): ++++ (“++++” means ≤0.2)

COc1cc(-n2c(C3(O)CCCC[C@@H]3OC)c(-c3ccc(C(=O)O)c(C)c3)c3c(F)c4[nH]ncc4cc32)ccc1F (stereo partly shown) [Compound 55]
Compound Quality (AAT): ++ (“++” means >0.30 and ≤0.40)

CO[C@H]1CCCCC1(O)c1c(-c2ccc(C(=O)O)c(C)c2)c2c(F)c3[nH]ncc3cc2n1-c1ccc(F)cc1 (stereo partly shown) [Compound 56]
Compound Quality (AAT): +++ (“+++” means >0.20 and ≤0.30)

[2H]C([2H])([2H])OC[C@@](O)(c1c(-c2ccc(C(=O)O)cc2)c2c(F)c3[nH]ncc3cc2n1-c1ccc(F)c(C)c1)C([2H])([2H])C([2H])([2H])[2H] [Compound 57]
Compound Quality (AAT): + (“+” means >0.40 and ≤0.50)

CCOC1CCCC1(O)c1c(-c2ccc(C(=O)O)cc2)c2c(F)c3[nH]ncc3cc2n1-c1ccc(F)c(OC)c1 (stereo not shown) [Compound 58]
Compound Quality (AAT): + (“+” means >0.40 and ≤0.50)

COC1COCCC1(O)c1c(-c2ccc(C(=O)O)cc2)c2c(F)c3[nH]ncc3cc2n1-c1ccc(F)c(C)c1 (stereo not shown) [Compound 59]
Compound Quality (AAT): ++ (“++” means >0.30 and ≤0.40)

CO[C@H]1CCCCC1(O)c1c(-c2ccc(C(=O)O)cc2)c2c(F)c3[nH]ncc3cc2n1-c1ccc(F)c(F)c1F (stereo partly shown) [Compound 60]
Compound Quality (AAT): +++ (“+++” means >0.20 and ≤0.30)

CO[C@H]1CCCCC1(O)c1c(-c2ccc(C(=O)O)cc2)c2c(F)c3[nH]ncc3cc2n1-c1cc(F)c(F)cc1F (stereo partly shown) [Compound 61]
Compound Quality (AAT): +++ (“+++” means >0.20 and ≤0.30)

CCC(O)(COC)c1c(-c2ccc(C(=O)O)cc2F)c2c(F)c3[nH]ncc3cc2n1-c1ccc(F)c(F)c1 (stereo not shown) [Compound 62]
Compound Quality (AAT): + (“+” means >0.40 and ≤0.50)

CCC(O)(COC)c1c(-c2ccc(C(=O)O)cc2F)c2c(F)c3[nH]ncc3cc2n1-c1ccc(F)c(C)c1 (stereo not shown) [Compound 63]
Compound Quality (AAT): + (“+” means >0.40 and ≤0.50)

CCOCC(O)(CC)c1c(-c2ccc(C(=O)O)cc2)c2c(F)c3[nH]ncc3cc2n1-c1cccc2cnn(C)c12 (stereo not shown) [Compound 64]
Compound Quality (AAT): ++ (“++” means >0.30 and ≤0.40)

[2H]C([2H])([2H])Oc1cc(-n2c(C(O)(CC)COC)c(-c3ccc(C(=O)O)c(CC)c3)c3c(F)c4[nH]ncc4cc32)ccc1F (stereo not shown) [Compound 65]
Compound Quality (AAT): + (“+” means >0.40 and ≤0.50)

COc1cc(-n2c(C3(O)CCCCC3F)c(-c3ccc(C(=O)O)cc3)c3c(F)c4[nH]ncc4cc32)ccc1F (stereo not shown) [Compound 66]
Compound Quality (AAT): ++ (“++” means >0.30 and ≤0.40)

CO[C@H]1CCCCC1(O)c1c(-c2ccc(C(=O)O)c(F)c2)c2c(F)c3[nH]ncc3cc2n1-c1ccc(F)cc1 (stereo partly shown) [Compound 67]
Compound Quality (AAT): ++ (“++” means >0.30 and ≤0.40)

CC[C@](O)(COC)c1c(-c2ccc(C(=O)O)cc2)c2cc3[nH]ncc3cc2n1-c1ccc(F)c(Cl)c1 [reference compound]
EM Score [1]: + (“+” means 1-10) | Exposure Multiple ([1]; Bid dose 100 (daily 200)): 2 | Exposure Multiple ([1]; Bid dose 250 (daily 500)): 1 | Exposure Multiple ([1]; Bid dose 500 (daily 1000)): 2

CCC(O)(COC)c1c(-c2ccc(C(=O)O)cc2)c2cc3[nH]ncc3cc2n1-c1ccc(F)cc1 (stereo not shown) [reference compound]
EM Score [1]: ++ (“++” means 10-20) | Exposure Multiple ([1]; Bid dose 250 (daily 500)): 14

O=C(O)c1ccc(-c2c(C3CCOCC3)n(-c3ccc(F)c(F)c3)c3cc4cn[nH]c4cc23)cc1 [reference compound]
EM Score [1]: − (“−” means <1) | Exposure Multiple ([1]; Bid dose 300 (daily 600)): 0.4

COCC(C)(C)c1c(-c2ccc(C(=O)O)cc2)c2cc3[nH]ncc3cc2n1-c1ccc(F)cc1 [reference compound]
EM Score [1]: ++ (“++” means 10-20) | Exposure Multiple ([1]; Bid dose 25 (daily 50)): 5 | Exposure Multiple ([1]; Bid dose 50 (daily 100)): 13 | Exposure Multiple ([1]; Bid dose 100 (daily 200)): 18

CC(C)(CC#N)c1c(-c2ccc(C(=O)O)cc2)c2cc3[nH]ncc3cc2n1-c1ccc(F)cc1 [reference compound]
EM Score [1]: + (“+” means 1-10) | Exposure Multiple ([1]; Bid dose 287.5 (daily 575)): 1.8
